# Experimental data from US8501483B2, “Method of assessing cancer status in a breast cancer patient” (University College Dublin, National University of Ireland, …, priority 2008, dated 2013).
# How the values were obtained:
# HOX-C11 = assay: Immunocytochemistry of HOX-C11 in tamoxifen-resistant cells; type: cell-based
# Text: (§1) Increased interactions between HOX-C11 and SRC-1 were found in endocrine resistant versus endocrine sensitive breast cancer. Furthermore these interactions were enhanced in the presence of endocrine modulators, tamoxifen and faslodex (FIG. 1). In primary breast cancer tissue HOX-C11 and SRC-1 were co-localised to the nucleus and perinuclear region of the tumour epithelial cells (FIG. 2). A greater interaction occurred in tamoxifen-resistant LY2 cells, compared with the parent MCF-7 sensitive cell line. HOX genes play a central role in ductal formation and lobulo-aleolar development by regulating epithelial proliferation and differentiation in the developing breast and have been implicated in steroid/growth-factor pathway crosstalk. […] S100β has been identified as a possible target gene of the HOX-C11 transcription factor. Several HOX responsive elements have been identified in the promoter of S100β and forced expression of HOX-C11 in neuronal cells induces expression of S100β. This family of calcium binding protein is secreted and has previously been associated with poor outcome and reduced disease-free survival in melanoma. Experimental data provides evidence for a functional interaction between SRC-1 and HOX-C11. Knockdown of SRC-1 using siRNA abrogated the HOX-C11 associated induction of S100β (FIG. 4B). […]
# [1] = system: interactions between SRC-1 and HOX-C11; assay: Immunoprecipitation of SRC-1 and subsequent immunoblot for HOX-C11 in endocrine resistant LY2 cells; type: cell-based; settings: endocrine resistant breast cancer LY2 cells, 10^−8 M, FIG. 1
# Procedure: FIG. 1: Confirmation of differential interactions between SRC-1 and HOX-C11 in endocrine resistant breast cancer LY2 cells in the presence of tamoxifen (4-OHT) and faslodex (ICI) (10^−8 M) was performed by immunoprecipitation of SRC-1 and subsequent immunoblot for HOX-C11.
# as §1, with “S100β.” for “S100β. This family of calcium binding protein is secreted and has previously been associated with poor outcome and reduced disease-free survival in melanoma. Experimental data provides evidence for a functional interaction between SRC-1 and HOX-C11. Knockdown of SRC-1 using siRNA abrogated the HOX-C11 associated induction of S100β (FIG. 4B).”
SMILES,HOX-C11 localisation when cells were treated (HOX-C11),interactions between HOX-C11 and SRC-1 [1]
C[C@]12CC[C@@H]3c4ccc(O)cc4C[C@@H](CCCCCCCCC[S+]([O-])CCCC(F)(F)C(F)(F)F)[C@H]3[C@@H]1CC[C@@H]2O (stereo partly shown) [faslodex],translocate to the nucleus and peri-nuclear region,enhanced
CC/C(=C(\c1ccccc1)c1ccc(OCCN(C)C)cc1)c1ccccc1 [tamoxifen],translocate to the nucleus and peri-nuclear region,enhanced
